# Reference: US20070259908A1, “Mitochondria Activators” (KANEKA CORPORATION, priority 2004, published 2007)
# Legend:
# [1] = test system: tissue of the pancreatic islets of Langerhans; test: Insulin secretion from cultured tissue of the pancreatic islets of Langerhans (ELISA), as index of mitochondria-activating activity / ATP production; format: cell-based, rat; details: for insulin concentration (secretion amount of insulin from tissue of the islets of Langerhans) / insulin concentration, value in parentheses (control = 100): 0.1 μg/ml of each test substance in medium, culture for 1 hr; for insulin concentration (secretion amount of insulin from tissue of the islets of Langerhans): ELISA, control 43 ± 8; for insulin concentration, value in parentheses (control = 100): relative to control (100); for increase of the concentration of insulin in the medium: addition amount of 0.1 μg/ml, versus control
# Excerpt: Therefore, a tissue of the pancreatic islets of Langerhans, which reacts with ATP to secrete insulin, was used to evaluate the mitochondria-activating activity of a test substance, with the insulin secretion as an index. As the tissue of the pancreatic islets of Langerhans, a culture kit (manufactured by Hokudo Co., Ltd) prepared from a rat was used. […] In the same manner as in Example 1, a tissue of the pancreatic islets of Langerhans was used to evaluate the mitochondria-activating activity of a test substance, with the insulin secretion as an index. As the tissue of the pancreatic islets of Langerhans, a culture kit (manufactured by Hokudo Co., Ltd) prepared from a rat was used.
# rats = details: consecutive administration of 1200 mg/Kg/day for 52 weeks; cited from earlier work
# kidney = details: reported in patent reference 5; narrow safety margin; cited from earlier work
SMILES,insulin concentration (secretion amount of insulin from tissue of the islets of Langerhans) [1] [ng/mL],"insulin concentration, value in parentheses (control = 100) [1]",increase of the concentration of insulin in the medium [1] [fold],toxic effect in chronic toxicity test (rats),toxicity to kidney (kidney)
"COC1=C(OC)C(=O)C(C/C=C(\C)CC/C=C(\C)CC/C=C(\C)CC/C=C(\C)CC/C=C(\C)CC/C=C(\C)CC/C=C(\C)CC/C=C(\C)CC/C=C(\C)CCC=C(C)C)=C(C)C1=O [oxidized coenzyme Q10, reference compound]",329 ± 85,765,7.7,–,–
COc1c(O)c(C)c(C/C=C(\C)CC/C=C(\C)CC/C=C(\C)CC/C=C(\C)CC/C=C(\C)CC/C=C(\C)CC/C=C(\C)CC/C=C(\C)CC/C=C(\C)CCC=C(C)C)c(O)c1OC [reduced coenzyme Q10],360 ± 78,837,8.3,–,–
O=C(O)CC(O)(CC(=O)O)C(=O)O [citric acid],2030 ± 391,4720,47,–,–
COC1=C(OC)C(=O)C(C/C=C(\C)CC/C=C(\C)CC/C=C(\C)CC/C=C(\C)CC/C=C(\C)CC/C=C(\C)CC/C=C(\C)CC/C=C(\C)CC/C=C(\C)CCC=C(C)C)=C(C)C1=O [coenzyme Q10],–,–,–,absence of toxic effect,–
"O=C(O)c1cc(C(=O)O)c2c(n1)C(=O)C(=O)c1cc(C(=O)O)[nH]c1-2 [pyrroloquinoline quinone, 2,7,9-tricarboxy-1H-pyrrolo[2,3-f]quinoline-4,5-dione]",220 ± 56,511,5.1,–,strong toxicity to kidney
